Reference: PMC7582905, “Effect of Disulfide Cyclization of Ultrashort Cationic Lipopeptides on Antimicrobial Activity and Cytotoxicity” (International Journal of Molecular Sciences, 2020)

Columns and labels:
[1] = test system: C. albicans (ATCC 10231); settings: ref [5] Makovitzki et al.; cited from earlier work
Text: When a peptide is cyclic its antifungal activity is usually remarkably higher than that of the antibacterial activity as compared that of the linear parent molecules. The differences in antifungal and antibacterial (Gram-negative) activities between the cyclic and linear lipopeptides are statistically significant (p < 0.05). Makovitzki et al. have reported a high antimicrobial activity of C16-KKkK-NH2 (originally written as C16-KKKK-NH2; k/K—D-enantiomer) against P. aeruginosa, E. coli, and S. aureus (3–6.25 μM; approx. 2.3–4.8 μg/mL) being similar to that of lipopeptide 3. However, different ...

[2] = test system: Candida albicans ATCC 10231; assay: Transmission electron microscopy (TEM); format: cell-based; settings: 2 × MIC, 5.0 × 10^6 CFU/mL, 1 h at room temperature
Procedure: TEM was used to examine ultrastructural changes in the Candida albicans ATCC 10231 cells treated with selected lipopeptides (L2, C2, L4, C4) and melittin (positive control). Fungal cells (Candida albicans ATCC 10231) were incubated in RMPI-1640 overnight. The cells were centrifuged (3500 rpm, 7 min) and resuspended in fresh RMPI-1640 medium to obtain dense cell suspension (5.0 × 10^6 CFU/mL). The high cell-density culture was prepared to facilitate TEM observations. Peptides’ concentrations were 2 × MIC. Samples were incubated for 1 h at room temperature. Importantly, MIC of selected peptides (L2, C2, L4, C4, and melittin) were also determined with dense inoculum of yeasts (5.0 × 10^6 CFU/mL). After the treatment, the fungal cells were centrifuged (3500× rpm, 10 min) and washed twice with PBS. Fungal cells were fixed with 2.5% glutaraldehyde buffered at pH 6.5 with 0.1 M sodium cacodylate (Polysciences, Warrington, PA, USA) for 6 h at room temperature. Postfixation was performed with a 1% osmium tetroxide (Polysciences, Warrington, PA, USA) solution for 2 h at 4 °C. The cells were then centrifuged and resuspended in 0.1 M cacodylate buffer (pH 6.5). After re-centrifugation, cells were dehydrated with ethanol. Yeasts were embedded in Epon 812 resin (Sigma-Aldrich) at room temperature. An ultramicrotome Leica UC7 was used to prepare ultrathin sections (55 nm). […]

Molecule | MIC C. albicans (ATCC 10231) [1] [µM] | ultrastructural changes in TEM micrographs [2]
C16-KKkK-NH2 | 25 | –
CC[C@H](C)[C@H](NC(=O)CN)C(=O)NCC(=O)N[C@@H](C)C(=O)N[C@H](C(=O)N[C@@H](CC(C)C)C(=O)N[C@@H](CCCCN)C(=O)N[C@H](C(=O)N[C@@H](CC(C)C)C(=O)N[C@H](C(=O)N[C@H](C(=O)NCC(=O)N[C@@H](CC(C)C)C(=O)N1CCC[C@H]1C(=O)N[C@@H](C)C(=O)N[C@@H](CC(C)C)C(=O)N[C@H](C(=O)N[C@@H](CO)C(=O)N[C@@H](Cc1c[nH]c2ccccc12)C(=O)N[C@H](C(=O)N[C@@H](CCCCN)C(=O)N[C@@H](CCCNC(=N)N)C(=O)N[C@@H](CCCCN)C(=O)N[C@@H](CCCNC(=N)N)C(=O)N[C@@H](CCC(N)=O)C(=O)N[C@@H](CCC(N)=O)C(N)=O)[C@@H](C)CC)[C@@H](C)CC)[C@@H](C)O)[C@@H](C)O)C(C)C)C(C)C [melittin, Melittin, reference compound] | – | numerous vesicles are visible inside and outside the cell
